Source: patent US7521182B2, “Selection system containing non-antibiotic resistance selection marker” (priority 2003, dated 2009)

Columns and labels:
Assay type in all cases: cell-based, E. coli
[1] = test system: AG1ΔaraD ΔulaFΔsgbE; test: Testing of arabinose sensitivity (M9 medium with 0.5% yeast extract, OD600)
Protocol: (§1) The arabinose sensitivity was tested on the E. coli DH5alphaT1 ΔaraDΔulaFΔsgbE and AG1ΔaraDΔulaFΔsgbE strains produced and compared to those of E. coli DH5alphaT1ΔaraD and AG1ΔaraD strains. One colony of each strain was inoculated into 2 ml of M9 medium containing 0.5% yeast extract, 25 μg/ml of kanamycin, 0.2% glucose only or 0.2% or 2% L-arabinose, respectively.

[2] = test system: AG1 ΔaraD; test: as above
Protocol: as §1

[3] = test system: DH5alphaT1 ΔaraDΔulaF ΔsgbE; test: as above
Protocol: as §1

[4] = test system: DH5alphaT1 ΔaraD; test: as above
Protocol: as §1

[5] = test system: AG1ΔaraD, DH5alphaT1 ΔaraD and JM109ΔaraD; test: Arabinose sensitivity at lower concentrations of L-arabinose (FIG. 18)
Protocol: (§2) The arabinose sensitivity was tested on the produced AG1ΔaraD and JM109ΔaraD strains. One colony of AG1ΔaraD and one colony of JM109ΔaraD were each inoculated into 2 ml LB. The cultures were grown for 8 hours, diluted 1:100 into M9 medium containing 0.2% glycerol, 25 μg/ml kanamycin, 0.01% thiamine (0.05% proline for JM109ΔaraD) and different concentrations of L-arabinose were added in the growth medium. The cultures were grown overnight at 37° C. in shaker incubator and OD600 was measured (Table 1).
The arabinose sensitivity was further tested on AG1ΔaraD, DH5alphaT1 ΔaraD and JM109ΔaraD as above but using lower concentrations of L-arabinose.

[6] = test system: strains with intact araD gene; test: L-arabinose sensitivity in M9 and yeast extract medium (FIG. 19); conditions: 0,2% and 2% arabinose, overnight at 37° C.
Protocol: (§3) Additionally the L-arabinose sensitivity was tested in M9 and yeast extract medium with different glucose and arabinose concentrations (0.2% glucose, 0.2% arabinose, 2% arabinose). The cultures were incubated at 37° C. in a shaker incubator overnight. Then the OD600 was measured to quantitate the cell density.

[7] = test system: ΔaraD strains; test: as above; conditions: 0,2% and 2% arabinose, overnight at 37° C.
Protocol: as §3

[8] = test system: AG1ΔaraD; test: Testing of arabinose sensitivity (M9 medium with glycerol, overnight culture, OD600); conditions: for AG1ΔaraD OD600: overnight at 37° C.
Protocol: as §2

[9] = test system: JM109ΔaraD; test: as above; conditions: for JM109ΔaraD OD600: overnight at 37° C.
Protocol: as §2

[10] = test system: host deficient of the araD gene; test: Amount of arabinose in the growth medium for selection
From the text: Any growth medium suitable for culturing E. coli cells can be used. For commercial production the growth medium will naturally be optimized in terms of the yield. Examples of suitable growth media are commercially available growth media, such as M9 and LB (available from several manufacturers, such as Fermentas, Lithuania). The amount of arabinose added in the growth medium is not critical but naturally arabinose should be present in an amount that is sufficient for the total culturing period. As low amount as 0.1% has been found sufficient for the selection. Typically arabinose is added to the medium in an amount of about 0.1% to about 2.0%, preferably in an amount of about 0.2% to about 1,0%, most preferably 0.2% to about 0.5%. However the effect of L-arabinose is observed at concentrations as low as 0.01% and L-arabinose can be added up to 5% in the growth medium. In a special embodiment, where L-arabinose is used both as a selecting agent and as a limited carbon source, 0.2% of L-arabinose is a suitable amount to be added into the growth medium.

O=C[C@H](O)[C@@H](O)[C@@H](O)CO [L-arabinose]
OD600 Glc + 0.2% L-arabinose ([1]; 0.2% L-arabinose): 0.82 | OD600 Glc + 2% L-arabinose ([1]; 2% L-arabinose): 0.35 | OD600 Glc + 0.2% L-arabinose ([2]; 0.2% L-arabinose): 0.82 | OD600 Glc + 2% L-arabinose ([2]; 2% L-arabinose): 0.26 | OD600 Glc + 0.2% L-arabinose ([3]; 0.2% L-arabinose): 0.75 | OD600 Glc + 2% L-arabinose ([3]; 2% L-arabinose): 0.28 | OD600 Glc + 0.2% L-arabinose ([4]; 0.2% L-arabinose): 0.95 | OD600 Glc + 2% L-arabinose ([4]; 2% L-arabinose): 0.35 | amount of L-arabinose enough to inhibit the growth [5]: 0.0005% | effect on growth of strains with intact araD gene [6]: not inhibited | effect on growth of the ΔaraD strains [7]: inhibited the growth | AG1ΔaraD OD600 ([8]; 0.1% L-arabinose): 0.03 | AG1ΔaraD OD600 ([8]; 0.2% L-arabinose): 0.030 | AG1ΔaraD OD600 ([8]; 0.5% L-arabinose): 0.030 | AG1ΔaraD OD600 ([8]; 1% L-arabinose): 0.024 | AG1ΔaraD OD600 ([8]; 2% L-arabinose): 0.017 | amount of L-arabinose enough to inhibit the growth ([8]; Table 1): 0.1% | JM109ΔaraD OD600 ([9]; 0.1% L-arabinose): 0.03 | JM109ΔaraD OD600 ([9]; 0.2% L-arabinose): 0.026 | JM109ΔaraD OD600 ([9]; 0.5% L-arabinose): 0.020 | JM109ΔaraD OD600 ([9]; 1% L-arabinose): 0.025 | JM109ΔaraD OD600 ([9]; 2% L-arabinose): 0.021 | amount of L-arabinose enough to inhibit the growth ([9]; Table 1): 0.1% | amount of arabinose found sufficient for the selection [10]: 0.1% | concentration at which the effect of L-arabinose is observed [10]: 0.01%
